According to ChEMBL document CHEMBL1135630 (J Med Chem, 2002):

Target: Neuronal acetylcholine receptor subunit alpha-7 (Rattus norvegicus, UniProt Q05941)
Test: Inhibition of [125I]- iodo-MLA binding at the Nicotinic acetylcholine receptor alpha-7 (nAChR) in male rat cerebral cortex
Type: tissue-based
Conditions: not given

Sequence of Neuronal acetylcholine receptor subunit alpha-7 (Q05941 whole entry): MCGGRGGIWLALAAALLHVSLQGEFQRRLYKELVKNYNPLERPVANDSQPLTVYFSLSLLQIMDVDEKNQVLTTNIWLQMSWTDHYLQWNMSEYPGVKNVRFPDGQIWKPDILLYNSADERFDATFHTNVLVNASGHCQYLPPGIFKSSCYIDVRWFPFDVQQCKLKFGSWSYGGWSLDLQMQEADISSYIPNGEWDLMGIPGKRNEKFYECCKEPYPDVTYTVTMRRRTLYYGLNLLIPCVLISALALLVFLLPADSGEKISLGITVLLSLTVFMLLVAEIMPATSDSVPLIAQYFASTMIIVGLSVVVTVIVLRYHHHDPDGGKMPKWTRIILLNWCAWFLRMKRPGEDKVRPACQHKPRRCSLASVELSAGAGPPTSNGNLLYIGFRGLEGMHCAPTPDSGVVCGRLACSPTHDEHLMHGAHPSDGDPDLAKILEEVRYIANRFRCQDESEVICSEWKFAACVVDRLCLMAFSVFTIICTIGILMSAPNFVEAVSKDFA

Structure (SMILES) | Ki [pM]
Fc1cc(C2CC3CCC2N3)cnc1Cl (stereo not drawn) | 3430
Nc1cc([C@H]2CC3CCC2N3)cnc1Cl (stereo partly drawn) | 13900
Nc1ncc([C@H]2CC3CCC2N3)cc1I (stereo partly drawn) | 34100
Oc1ccc([C@H]2CC3CCC2N3)cn1 (stereo partly drawn) | 675000
Clc1cc([C@H]2CC3CCC2N3)cnc1Cl (stereo partly drawn) | 1120

Tested on: Rattus norvegicus
Test: Antagonist activity after subcutaneously administration of nicotine at a dose of 2.5 mg/kg in hot- plate test at a concentration of 0.01 mg/kg
Type: functional
Set-up: scale not given: the % may be the effect or the level left
Conditions: not given

Structure (SMILES) | Effect [%]
Clc1ncc(C2CC3CCC2N3)cc1I (stereo not drawn) | 0

Target: T1, Neuronal acetylcholine receptor (Rattus norvegicus) (UniProt P04757+P09483+P12389+P12390+P12392+P43144+Q9JLB5+P12391+P43143+P20420+Q05941)
Test: Agonist activity against alpha beta Nicotinic acetylcholine receptor (nAChR) in male rat cerebral cortex in antinociceptive assay in tail flick test at a dose of 10 mg/kg
Type: functional, organism-based
Set-up: dose 10 mg/kg
Conditions: not given

Structure (SMILES) | Effect [%]
Oc1ncc([C@H]2CC3CCC2N3)cc1Br (stereo partly drawn) | 1

Species: Rattus norvegicus
Test: Agonist activity against alpha beta Nicotinic acetylcholine receptor (nAChR) in male rat cerebral cortex in antinociceptive assay in tail flick test
Type: functional
Conditions: not given

Structure (SMILES) | ED50 [µg/kg]
Clc1ccc(C2CC3CCC2N3)cn1 (racemic) [EPIBATIDINE] | 6
Oc1ccc([C@H]2CC3CCC2N3)cn1 (stereo partly drawn) | 1500

Tested on: Rattus norvegicus
Test: Antagonist activity after subcutaneously administration of nicotine at a dose of 2.5 mg/kg in hot- plate test at a concentration of 0.05 mg/kg
Type: functional
Set-up: scale not given: the % may be the effect or the level left
Conditions: not given

Structure (SMILES) | Effect [%]
Fc1ncc([C@H]2CC3CCC2N3)cc1I (stereo partly drawn) | 0
Fc1ncc([C@H]2CC3CCC2N3)cc1Br (stereo partly drawn) | 0

Species: Rattus norvegicus
Test: Agonist activity against alpha beta Nicotinic acetylcholine receptor (nAChR) in male rat cerebral cortex using antinociceptive assay in hypothermia test
Type: functional
Conditions: not given

Structure (SMILES) | ED50 [µg/kg]
Fc1ncc([C@H]2CC3CCC2N3)cc1I (stereo partly drawn) | 300
Nc1ncc([C@H]2CC3CCC2N3)cc1Br (stereo partly drawn) | 75
Fc1ncc([C@H]2CC3CCC2N3)cc1Br (stereo partly drawn) | 10
Brc1cc([C@H]2CC3CCC2N3)cnc1I (stereo partly drawn) | 40
Clc1ncc(C2CC3CCC2N3)cc1I (stereo not drawn) | 27
Fc1cc(C2CC3CCC2N3)cnc1Cl (stereo not drawn) | 6
Nc1cc([C@H]2CC3CCC2N3)cnc1Cl (stereo partly drawn) | 17
Nc1ncc([C@H]2CC3CCC2N3)cc1I (stereo partly drawn) | 300
Clc1ncc([C@H]2CC3CCC2N3)cc1Br (stereo partly drawn) | 40
Clc1cc([C@H]2CC3CCC2N3)cnc1Cl (stereo partly drawn) | 20

Species: Rattus norvegicus
Test: Agonist activity against alpha beta Nicotinic acetylcholine receptor (nAChR) in male rat cerebral cortex in antinociceptive assay in hot plate test
Type: functional
Conditions: not given

Structure (SMILES) | ED50 [µg/kg]
Clc1ccc(C2CC3CCC2N3)cn1 (racemic) [EPIBATIDINE] | 4
Oc1ccc([C@H]2CC3CCC2N3)cn1 (stereo partly drawn) | 500

Tested on: Rattus norvegicus
Test: Antagonist activity after subcutaneously administration of nicotine at a dose of 2.5 mg/kg in hotplate test at a concentration of 0.05 mg/kg
Type: functional
Set-up: scale not given: the % may be the effect or the level left
Conditions: not given

Structure (SMILES) | Effect [%]
Brc1cc([C@H]2CC3CCC2N3)cnc1I (stereo partly drawn) | 0

Species: Rattus norvegicus
Test: Agonist activity against alpha beta Nicotinic acetylcholine receptor (nAChR) in male rat cerebral cortex in antinociceptive assay in hypothermia test
Type: functional
Conditions: not given

Structure (SMILES) | ED50 [µg/kg]
Clc1ccc(C2CC3CCC2N3)cn1 (racemic) [EPIBATIDINE] | 4
Oc1ccc([C@H]2CC3CCC2N3)cn1 (stereo partly drawn) | 1200

Species: Rattus norvegicus
Test: Agonist activity against alpha beta Nicotinic acetylcholine receptor (nAChR) in male rat cerebral cortex using antinociceptive assay in tail flick test
Type: functional
Conditions: not given

Structure (SMILES) | ED50 [µg/kg]
Fc1ncc([C@H]2CC3CCC2N3)cc1I (stereo partly drawn) | 700
Nc1ncc([C@H]2CC3CCC2N3)cc1Br (stereo partly drawn) | 70
Fc1ncc([C@H]2CC3CCC2N3)cc1Br (stereo partly drawn) | 700
Brc1cc([C@H]2CC3CCC2N3)cnc1I (stereo partly drawn) | 270
Clc1ncc(C2CC3CCC2N3)cc1I (stereo not drawn) | 240
Fc1cc(C2CC3CCC2N3)cnc1Cl (stereo not drawn) | 8
Nc1cc([C@H]2CC3CCC2N3)cnc1Cl (stereo partly drawn) | 20
Nc1ncc([C@H]2CC3CCC2N3)cc1I (stereo partly drawn) | 650
Clc1ncc([C@H]2CC3CCC2N3)cc1Br (stereo partly drawn) | 30
Clc1cc([C@H]2CC3CCC2N3)cnc1Cl (stereo partly drawn) | 50

Tested on: Rattus norvegicus
Test: Antagonist activity after subcutaneously administration of nicotine at a dose of 2.5 mg/kg in tail-flick test (value in parentheses is 95% confidence limits)
Type: functional
Conditions: route subcutaneous

Structure (SMILES) | AD50 [µg/kg]
Nc1cc([C@H]2CC3CCC2N3)cnc1Cl (stereo partly drawn) | 0.03

Tested on: Rattus norvegicus
Test: Antagonist activity after subcutaneously administration of nicotine at a dose of 2.5 mg/kg in tail-flick test at a concentration of 0.01 mg/kg
Type: functional
Set-up: scale not given: the % may be the effect or the level left
Conditions: not given

Structure (SMILES) | Effect [%]
Clc1ncc(C2CC3CCC2N3)cc1I (stereo not drawn) | 4

Tested on: Rattus norvegicus
Test: Antagonist activity after subcutaneously administration of nicotine at a dose of 2.5 mg/kg in tail-flick test at a concentration of 0.05 mg/kg
Type: functional
Set-up: scale not given: the % may be the effect or the level left
Conditions: not given

Structure (SMILES) | Effect [%]
Fc1ncc([C@H]2CC3CCC2N3)cc1I (stereo partly drawn) | 0
Fc1ncc([C@H]2CC3CCC2N3)cc1Br (stereo partly drawn) | 0
Brc1cc([C@H]2CC3CCC2N3)cnc1I (stereo partly drawn) | 4

Target: T1, Neuronal acetylcholine receptor (Rattus norvegicus)
Test: Agonist activity against alpha beta Nicotinic acetylcholine receptor (nAChR) in male rat cerebral cortex in antinociceptive assay in hot plate test at a dose of 10 mg/kg
Type: functional, organism-based
Set-up: dose 10 mg/kg
Conditions: not given

Structure (SMILES) | Effect [%]
Oc1ncc([C@H]2CC3CCC2N3)cc1Br (stereo partly drawn) | 9

Target: not listed separately
Test: Inhibition of [3H]- epibatidine binding at the Nicotinic acetylcholine receptor alpha beta (nAChR) in male rat cerebral cortex
Type: tissue-based
Conditions: not given

Structure (SMILES) | Ki [pM]
Fc1ncc([C@H]2CC3CCC2N3)cc1I (stereo partly drawn) | 51
Nc1ncc([C@H]2CC3CCC2N3)cc1Br (stereo partly drawn) | 290
Fc1ncc([C@H]2CC3CCC2N3)cc1Br (stereo partly drawn) | 71
Fc1ncc([C@H]2CC3CCC2N3)cc1Cl (stereo partly drawn) | 20
Brc1cc([C@H]2CC3CCC2N3)cnc1I (stereo partly drawn) | 27
Clc1ncc(C2CC3CCC2N3)cc1I (stereo not drawn) | 8
Fc1ccc(C2CC3CCC2N3)cn1 (stereo not drawn) | 27
Brc1cc([C@H]2CC3CCC2N3)cnc1Br (stereo partly drawn) | 15
Brc1ccc([C@H]2CC3CCC2N3)cn1 (stereo partly drawn) | 23
Ic1ccc(C2CC3CCC2N3)cn1 (stereo not drawn) | 70
Fc1cc([C@H]2CC3CCC2N3)cnc1F (stereo partly drawn) | 55
Fc1cc(C2CC3CCC2N3)cnc1Cl (stereo not drawn) | 25
Nc1cc([C@H]2CC3CCC2N3)cnc1Cl (stereo partly drawn) | 1
Nc1ncc([C@H]2CC3CCC2N3)cc1I (stereo partly drawn) | 520
Oc1ccc([C@H]2CC3CCC2N3)cn1 (stereo partly drawn) | 1500
Clc1ncc([C@H]2CC3CCC2N3)cc1Br (stereo partly drawn) | 13
Clc1cc([C@H]2CC3CCC2N3)cnc1Cl (stereo partly drawn) | 14
Oc1ncc([C@H]2CC3CCC2N3)cc1Br (stereo partly drawn) | 14400
Nc1ccc([C@H]2CC3CCC2N3)cn1 (stereo partly drawn) | 1300

Tested on: Rattus norvegicus
Test: Antagonist activity after subcutaneously administration of nicotine at a dose of 2.5 mg/kg in hot- plate test, the values expressed as 95% confidence limit (value in parentheses is 95% confidence limits)
Type: functional
Conditions: route subcutaneous

Structure (SMILES) | AD50 [µg/kg]
Nc1cc([C@H]2CC3CCC2N3)cnc1Cl (stereo partly drawn) | 0.6

Species: Rattus norvegicus
Test: Agonist activity against alpha beta Nicotinic acetylcholine receptor (nAChR) in male rat cerebral cortex using antinociceptive assay in hot plate test
Type: functional
Conditions: not given

Structure (SMILES) | ED50 [µg/kg]
Fc1ncc([C@H]2CC3CCC2N3)cc1I (stereo partly drawn) | 900
Nc1ncc([C@H]2CC3CCC2N3)cc1Br (stereo partly drawn) | 50
Fc1ncc([C@H]2CC3CCC2N3)cc1Br (stereo partly drawn) | 1200
Brc1cc([C@H]2CC3CCC2N3)cnc1I (stereo partly drawn) | 240
Clc1ncc(C2CC3CCC2N3)cc1I (stereo not drawn) | 140
Fc1cc(C2CC3CCC2N3)cnc1Cl (stereo not drawn) | 9
Nc1cc([C@H]2CC3CCC2N3)cnc1Cl (stereo partly drawn) | 20
Nc1ncc([C@H]2CC3CCC2N3)cc1I (stereo partly drawn) | 500
Clc1ncc([C@H]2CC3CCC2N3)cc1Br (stereo partly drawn) | 20
Clc1cc([C@H]2CC3CCC2N3)cnc1Cl (stereo partly drawn) | 30

Target: T1, Neuronal acetylcholine receptor (Rattus norvegicus)
Test: Agonist activity against alpha beta Nicotinic acetylcholine receptor (nAChR) in male rat cerebral cortex in antinociceptive assay in hypothermia test at a dose of 10 mg/kg
Type: functional, organism-based
Set-up: dose 10 mg/kg
Conditions: not given

Structure (SMILES) | Effect [%]
Oc1ncc([C@H]2CC3CCC2N3)cc1Br (stereo partly drawn) | 0
